From ChEMBL document CHEMBL3769312, “2-Sulfonamidopyridine C-region analogs of 2-(3-fluoro-4-methylsulfonamidophenyl)propanamides as potent TRPV1 antagonists” (Bioorg Med Chem, 2016) come the findings set out here.

Molecules are shown by their SMILES. pKi: −log10 of the molar value.

Assay [1] addresses T1, Transient receptor potential cation channel subfamily V member 1 (Homo sapiens, UniProt Q8NER1). Nature of the assay: Antagonist activity at human TRPV1 expressed in CHO cells assessed as inhibition of capsaicin-induced (45)Ca2+ uptake after 5 mins by liquid scintillation counting analysis. Conditions: for pKi: read-out: Ki; call rule not given here. The format is cell-based.
The target in assay [2] is T1, Transient receptor potential cation channel subfamily V member 1. The experiment in a line: Agonist activity at human TRPV1 expressed in CHO cells assessed as (45)Ca2+ uptake after 5 mins by liquid scintillation counting analysis. The format is cell-based.
The target is the same in assay [3]. The experiment in a line: Displacement of [3H]RTX from human TRPV1 expressed in CHO cells after 60 mins by scintillation counting analysis. It is filed as cell-based. Conditions: for pKi: read-out: Ki.
Assay [4] relates to Mus musculus. The experiment in a line: Analgesic activity in ip dosed formalin-induced mouse pain model after 20 to 30 mins. The format is functional.

T1 sequence (Q8NER1 whole entry): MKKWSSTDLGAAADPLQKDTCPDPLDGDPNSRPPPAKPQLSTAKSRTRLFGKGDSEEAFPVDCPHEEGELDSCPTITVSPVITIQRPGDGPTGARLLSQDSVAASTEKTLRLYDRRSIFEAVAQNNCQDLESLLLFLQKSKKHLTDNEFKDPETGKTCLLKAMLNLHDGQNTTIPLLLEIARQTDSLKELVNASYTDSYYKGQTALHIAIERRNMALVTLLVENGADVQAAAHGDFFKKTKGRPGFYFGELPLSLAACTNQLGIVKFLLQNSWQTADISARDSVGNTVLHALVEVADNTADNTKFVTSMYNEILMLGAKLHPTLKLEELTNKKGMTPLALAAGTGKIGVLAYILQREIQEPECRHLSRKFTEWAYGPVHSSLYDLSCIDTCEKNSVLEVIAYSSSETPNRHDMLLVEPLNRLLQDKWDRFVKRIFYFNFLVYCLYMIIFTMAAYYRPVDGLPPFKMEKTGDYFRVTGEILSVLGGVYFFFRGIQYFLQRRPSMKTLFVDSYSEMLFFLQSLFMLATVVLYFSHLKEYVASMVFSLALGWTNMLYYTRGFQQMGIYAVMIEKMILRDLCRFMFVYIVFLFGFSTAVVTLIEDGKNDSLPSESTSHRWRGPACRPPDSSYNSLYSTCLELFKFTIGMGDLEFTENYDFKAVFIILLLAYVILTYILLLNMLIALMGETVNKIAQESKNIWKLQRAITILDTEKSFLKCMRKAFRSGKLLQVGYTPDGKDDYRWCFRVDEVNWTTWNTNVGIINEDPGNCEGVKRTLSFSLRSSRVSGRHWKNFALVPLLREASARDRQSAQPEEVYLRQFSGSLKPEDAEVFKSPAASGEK

Consider `COc1ccc(CN(c2nc(C(F)(F)F)ccc2CNC(=O)C(C)c2ccc(NS(C)(=O)=O)c(F)c2)S(=O)(=O)c2ccccc2)cc1` (configuration not stated), for which the negative-log Ki (pKi) was 8.67 in assay [1] and 8.12 in assay [3]. In addition, the EC50 entry in assay [2] is reported as “Not Active”.

Consider `CC1CCN(c2nc(C(F)(F)F)ccc2CNC(=O)[C@@H](C)c2ccc(NS(C)(=O)=O)c(F)c2)CC1`, for which the pKi in assay [1] was 8.90; in assay [3] it was 8.53. In addition, the EC50 entry in assay [2] is “Not Active”.

Regarding `CC(C(=O)NCc1ccc(C(F)(F)F)nc1NS(=O)(=O)c1ccccc1)c1ccc(NS(C)(=O)=O)c(F)c1` (configuration not stated), the Ki result in assay [1] (cho) and in assay [3] (cho) was “Active” throughout. In assay [2], the EC50 entry is given as “Not Active”.

As for `CC(C(=O)NCc1ccc(C(F)(F)F)nc1N(c1ccccc1)S(=O)(=O)c1ccccc1)c1ccc(NS(C)(=O)=O)c(F)c1` (configuration not stated), the results for the pKi in assay [1] and in assay [3] were 8.22 and 7.74, respectively. The EC50 entry in assay [2] was “Not Active”.

Regarding `Cc1ccc(CN(c2nc(C(F)(F)F)ccc2CNC(=O)C(C)c2ccc(NS(C)(=O)=O)c(F)c2)S(=O)(=O)c2ccccc2)cc1` (configuration not stated), the pKi in assay [1] is 8.26; in assay [3] it was 8.73. In assay [2], the EC50 result is on record as “Not Active”.

Take `CC(C(=O)NCc1ccc(C(F)(F)F)nc1N(Cc1ccc(F)cc1)S(=O)(=O)c1ccccc1)c1ccc(NS(C)(=O)=O)c(F)c1` (configuration not stated): the pKi was 8.13 in assay [1] and 8.63 in assay [3]. Besides, in assay [2], the EC50 result is “Not Active”.

For `CCS(=O)(=O)N(Cc1ccccc1)c1nc(C(F)(F)F)ccc1CNC(=O)C(C)c1ccc(NS(C)(=O)=O)c(F)c1` (configuration not stated), the results for the pKi in assay [1] and in assay [3] were 7.92 and 7.42, respectively. In addition, the EC50 entry in assay [2] is listed as “Not Active”.

For `CC(C(=O)NCc1ccc(C(F)(F)F)nc1N(CC1CCCCC1)S(=O)(=O)c1ccccc1)c1ccc(NS(C)(=O)=O)c(F)c1` (configuration not stated), the negative logarithm of the Ki (pKi) is 8.00 in assay [1] and 8.64 in assay [3]. The EC50 entry in assay [2] is on record as “Not Active”.

In the case of `CC(C(=O)NCc1ccc(C(F)(F)F)nc1N(C(C)C)S(=O)(=O)c1ccccc1)c1ccc(NS(C)(=O)=O)c(F)c1` (configuration not stated), the negative-log Ki (pKi) in assay [1] was 7.56; in assay [3], 6.39. Moreover, the EC50 result in assay [2] is “Not Active”.

`CC(C(=O)NCc1ccc(C(F)(F)F)nc1N(Cc1ccc(Cl)cc1)S(=O)(=O)c1ccc(F)cc1)c1ccc(NS(C)(=O)=O)c(F)c1` (configuration not stated): the negative logarithm of the Ki (pKi) in assay [1] is 8.22; in assay [3], 9.05. In addition, the EC50 result in assay [2] is reported as “Not Active”.

For `CC(C(=O)NCc1ccc(C(F)(F)F)nc1N(Cc1ccccc1)S(=O)(=O)c1ccccc1)c1ccc(NS(C)(=O)=O)c(F)c1` (configuration not stated), the pKi in assay [1] was 8.23. In addition, the EC50 entry in assay [2] is “Not Active”. Also, in assay [4], the Activity result is “Dose-dependent effect” and the median effective dose (ED50) amounted to 15.6 mg/kg. Also, the pKi in assay [3] is 8.70.

On to `COc1ccc(CN(c2nc(C(F)(F)F)ccc2CNC(=O)C(C)c2ccc(NS(C)(=O)=O)c(F)c2)S(=O)(=O)c2ccc(F)cc2)cc1` (configuration not stated), for which the pKi in assay [1] is 8.10; in assay [3], 8.78. The EC50 entry in assay [2] is “Not Active”.

Consider `CC(C(=O)NCc1ccc(C(F)(F)F)nc1N(Cc1ccccc1)S(C)(=O)=O)c1ccc(NS(C)(=O)=O)c(F)c1` (configuration not stated), for which the pKi is 7.60 in assay [1] and 7.00 in assay [3]. For the same molecule, in assay [2], the EC50 result is “Not Active”.

On to `Cc1ccc(CN(c2nc(C(F)(F)F)ccc2CNC(=O)C(C)c2ccc(NS(C)(=O)=O)c(F)c2)S(=O)(=O)c2ccc(F)cc2)cc1` (configuration not stated), for which the pKi in assay [1] was 8.15; in assay [3], 8.48. For the same molecule, the EC50 entry in assay [2] is on record as “Not Active”.

With `CC(C(=O)NCc1ccc(C(F)(F)F)nc1N(Cc1ccc(Cl)cc1)S(=O)(=O)c1ccccc1)c1ccc(NS(C)(=O)=O)c(F)c1` (configuration not stated), the pKi in assay [1] is 8.24; in assay [3], 8.89. In addition, the EC50 entry in assay [2] is reported as “Not Active”.

Turning to `CC(C(=O)NCc1ccc(C(F)(F)F)nc1N(C)S(=O)(=O)c1ccccc1)c1ccc(NS(C)(=O)=O)c(F)c1` (configuration not stated), the pKi in assay [1] was 7.00; in assay [3], 6.16. For the same molecule, the EC50 result in assay [2] is listed as “Not Active”.

As to `CC(C(=O)NCc1ccc(C(F)(F)F)nc1N(Cc1ccc(F)cc1)S(=O)(=O)c1ccc(F)cc1)c1ccc(NS(C)(=O)=O)c(F)c1` (configuration not stated), the negative logarithm of the Ki (pKi) in assay [1] was 8.52; in assay [3], 9.15. In assay [2], the EC50 result is on record as “Not Active”.

Turning to `CC1CCN(c2nc(C(F)(F)F)ccc2CNC(=O)C(C)c2ccc(NS(C)(=O)=O)c(F)c2)CC1` (configuration not stated), the negative logarithm of the Ki (pKi) is 8.65 in assay [1] and 8.10 in assay [3]. Moreover, the EC50 result in assay [2] is “Not Active”.

On to `C[C@H](C(=O)NCc1ccc(C(F)(F)F)nc1N(Cc1ccccc1)S(=O)(=O)c1ccccc1)c1ccc(NS(C)(=O)=O)c(F)c1`, for which the pKi in assay [1] is 8.74; in assay [3] it was 9.27. In assay [2], the EC50 result is “Not Active”.

As for `CC(C(=O)NCc1ccc(C(F)(F)F)nc1N(Cc1ccccc1)S(=O)(=O)c1ccc(F)cc1)c1ccc(NS(C)(=O)=O)c(F)c1` (configuration not stated), the pKi in assay [1] was 8.41; in assay [3], 8.81. Besides, the EC50 entry in assay [2] is on record as “Not Active”.

For `CCCS(=O)(=O)N(Cc1ccccc1)c1nc(C(F)(F)F)ccc1CNC(=O)C(C)c1ccc(NS(C)(=O)=O)c(F)c1` (configuration not stated), the EC50 result in assay [2] was “Not Active”.

`CC(C(=O)NCc1ccc(C(F)(F)F)nc1N(Cc1ccccc1)S(=O)(=O)c1ccc(Cl)cc1)c1ccc(NS(C)(=O)=O)c(F)c1` (configuration not stated): the negative-log Ki (pKi) in assay [1] is 8.07; in assay [3], 9.12. For the same molecule, the EC50 entry in assay [2] is listed as “Not Active”.

With `CC(C(=O)NCc1ccc(C(F)(F)F)nc1N(c1ccc(F)cc1)S(=O)(=O)c1ccccc1)c1ccc(NS(C)(=O)=O)c(F)c1` (configuration not stated), the pKi in assay [1] was 7.93; in assay [3], 8.14. Also, the EC50 entry in assay [2] is recorded as “Not Active”.

With `CC(C(=O)NCc1ccc(C(F)(F)F)nc1N(Cc1ccccc1)S(=O)(=O)C(C)C)c1ccc(NS(C)(=O)=O)c(F)c1` (configuration not stated), the negative logarithm of the Ki (pKi) in assay [1] was 8.21; in assay [3], 7.74. In assay [2], the EC50 entry was “Not Active”.
